Like-named read-outs stand apart in the source and are kept apart here.

These results are taken from patent US5472949A, “N^4 -(substituted-oxycarbonyl)-5'-deoxy-5-fluorocytidine compounds, compositions and methods of using same” (Hoffmann-La Roche Inc., priority 1992, dated 1995).

The nature of data set [1]: Pharmacokinetic profiles in monkeys (plasma 5'-DFUR after oral administration). Conditions: cynomolgous monkeys, metabolite 5'-DFUR in plasma. It counts as in vivo. The method, then: The compounds of formula (I) were orally administered into groups of 2 to 5 cynomolgous monkeys (3-4 kg). At various times after the administration, plasma was taken for determination of blood concentrations of intact molecules and their active metabolite 5'-DFUR. Metabolites in the plasma were separated by HPLC and their concentrations were calculated.

The test system of data set [2] is CXF280 Human Colon Carcinoma. As to the kind of experiment: Antitumor testing against human colon cancer xenograft CXF280. It counts as in vivo, BALB/c nu/nu mice. Also on record: key to Fecal observation: N: normal feces; L: loose passage. The method, then: CXF280 tumor (about 2×2 mm piece) was implanted subcutaneously into BALB/c nu/nu mice (21-22 g) on day 0. When tumor volume became 100 mm^3 on day around 14, the compounds of the invention were orally administered daily for 3 weeks. At one day after the last treatment, tumor volume was calculated.
The percent inhibition of tumor growth given in Table 3 above was calculated from the formula:
% Inhibition ={1-(T-V0)/(C-V0)}×100
V0 =volume of tumor before treatment was started, T=volume of the tumors from the treated group, C=volume of the tumor from the control group.

For another data set, the system named is monkey liver acylamidase. As to the kind of experiment: Susceptibility to monkey liver acylamidase (crude liver extract, 5'-DFCR formed by HPLC). It counts as in vitro ADME. As to conditions: tetrahydrouridine 0.4 mM, 37° C., 60 min. On the procedure:
(§1) The N^4 -(substituted-oxycarbonyl)-5'-DFCRs of the invention were incubated with crude extracts of monkey and human liver in the presence of an inhibitor of cytidine deaminase, tetrahydrouridine (0.4 mM) at 37° C. for 60 min. Thereafter, the product 5'-DFCR was separated by HPLC and the enzyme susceptibility was calculated from the amount of the product.

A short description of data set [3]: Toxicity (LD50), oral administration daily for 21 days in mice. As to conditions: mouse, in vivo. The method, then: The toxicity (LD50) of the representative compounds (Example 13,14, and 17) of the present invention was examined by oral administration daily for 21 days in mice. The representative LD50 values obtained from the experiments were more than 500 mg/kg/day.

The test system of a further data set is human liver acylamidase. Put plainly: Susceptibility to human liver acylamidase (crude liver extract, 5'-DFCR formed by HPLC). It counts as in vitro ADME. Conditions: tetrahydrouridine 0.4 mM, 37° C., 60 min. The method, then: as §1
The next data set relates to colon 26 carcinoma. As to the kind of experiment: Antitumor and anticachexia activity against mouse colon 26 carcinoma. It counts as in vivo, Mice (CDF1). As to conditions: for Serum IAP: IAP = immunosuppressive acidic protein. On the procedure:
Antitumor activity of a representative compound (Example 13), of the present invention, was measured as follows. Mice (CDF1) were subcutaneously inoculated with colon 26 carcinoma (10^6 cells) on day 0. The compound was administered daily for 7 times from day 21 when the animals became cachectic. One day after the last treatment, tumor weight gain, carcass weight gain, adipose tissue weight, concentrations of glucose and the acute phase reactant IAP (immunosuppressive acidic protein) in the serum were measured.

For orientation: LD50 means the dose at which mortality reaches 50%. For the compound `CCCCCCOC(=O)Nc1nc(=O)n([C@@H]2O[C@H](C)[C@@H](O)[C@H]2O)cc1F` [Example 13, 5'-deoxy-5-fluoro-N^4-(hexyloxycarbonyl)cytidine], the “Plasma 5'-DFUR AUC” value in data set [1] is 1960 ng·h/mL. For the same compound, in data set [2] (Exp. 1, 1.5 mmol/kg/day x 21, oral), the Fecal observation entry is listed as “N”. Further, the inhibition in vivo at 0.13 mmol/kg/day in data set [2] (Mus musculus, po, Exp. 1, 0.13 mmol/kg/day x 21, oral, read-out: % Growth inhibition) worked out at 59%. In addition, the inhibition in vivo at 0.3 mmol/kg/day in data set [2] (Mus musculus, po, Exp. 1, 0.3 mmol/kg/day x 21, oral, read-out: % Growth inhibition) was 66%. The inhibition in vivo at 0.67 mmol/kg/day in data set [2] (Mus musculus, po, Exp. 1, 0.67 mmol/kg/day x 21, oral, read-out: % Growth inhibition) is 79%. Further, the inhibition in vivo at 1 mmol/kg/day in data set [2] (Mus musculus, po, Exp. 1, 1.0 mmol/kg/day x 21, oral, read-out: % Growth inhibition) was 91%. Also, the inhibition in vivo at 1.5 mmol/kg/day in data set [2] (Mus musculus, po, Exp. 1, 1.5 mmol/kg/day x 21, oral, read-out: % Growth inhibition) worked out at 94%. Besides, the “Acylamidase activity, Monkey Liver” value in the data set with monkey liver acylamidase worked out at 47 nmol/mg protein/hr. In data set [3], the LD50 at 504 h is above 500 mg/kg. In addition, the “Acylamidase activity, Human Liver” value in the data set with human liver acylamidase turned out to be 220 nmol/mg protein/hr. In the data set with colon 26 carcinoma (0.125 mmol/kg x 7, from day 21), the Adipose tissue wt. is given as 22 mg, the Carcass wt. change was 1.6 g, the Serum glucose amounted to 118 mg/dL and the Tumor wt. change is 1.24 g. For the same compound, the “Serum IAP” value with colon 26 carcinoma (0.125 mmol/kg x 7, from day 21) is 1195 µg/mL. In the data set on colon 26 carcinoma (0.25 mmol/kg x 7, from day 21), this compound returned an Adipose tissue wt. of 42 mg, a Carcass wt. change of 3.4 g, a Serum glucose of 120 mg/dL and a Tumor wt. change of 0.91 g. For the same compound, the “Serum IAP” value in the data set on colon 26 carcinoma (0.25 mmol/kg x 7, from day 21) came out at 1020 µg/mL. In the data set on colon 26 carcinoma (0.5 mmol/kg x 7, from day 21), this compound had an Adipose tissue wt. of 63 mg, a Carcass wt. change of 4.2 g, a Serum glucose of 147 mg/dL and a Tumor wt. change of 0.79 g. Moreover, in the data set with colon 26 carcinoma (0.5 mmol/kg x 7, from day 21), the “Serum IAP” value came to 805 µg/mL. In the data set on colon 26 carcinoma (1 mmol/kg x 7, from day 21), this compound registered an Adipose tissue wt. of 85 mg, a Carcass wt. change of 5.6 g, a Serum glucose of 127 mg/dL and a Tumor wt. change of 0.006 g. In the data set with colon 26 carcinoma (1 mmol/kg x 7, from day 21), the “Serum IAP” value stood at 795 µg/mL. Also, in the data set with colon 26 carcinoma (daily for 7 times from day 21), the “cachexia (in words)” value is “improved cachexia” and the “tumor growth (in words)” value was “suppressed tumor growth”.

In the case of `CC(C)CCOC(=O)Nc1nc(=O)n([C@@H]2O[C@H](C)[C@@H](O)[C@H]2O)cc1F` [Example 14, 5'-deoxy-5-fluoro-N^4-(isopentyloxycarbonyl)cytidine], the “Plasma 5'-DFUR AUC” value in data set [1] stood at 2400 ng·h/mL. In addition, the Fecal observation entry is given as “N” in data set [2] (Exp. 2, 1.5 mmol/kg/day x 21, oral) and “N” in data set [2] (Exp. 2, 2.25 mmol/kg/day x 21, oral). Besides, in data set [2] (Mus musculus, po, Exp. 2, 0.13 mmol/kg/day x 21, oral, read-out: % Growth inhibition), the inhibition in vivo at 0.13 mmol/kg/day amounted to 68%. Moreover, the inhibition in vivo at 0.3 mmol/kg/day in data set [2] (Mus musculus, po, Exp. 2, 0.3 mmol/kg/day x 21, oral, read-out: % Growth inhibition) was found to be 68%. For the same compound, in data set [2] (Mus musculus, po, Exp. 2, 0.67 mmol/kg/day x 21, oral, read-out: % Growth inhibition), the inhibition in vivo at 0.67 mmol/kg/day is 85%. Moreover, the inhibition in vivo at 1.5 mmol/kg/day in data set [2] (Mus musculus, po, Exp. 2, 1.5 mmol/kg/day x 21, oral, read-out: % Growth inhibition) came to 94%. In addition, the inhibition in vivo at 2.25 mmol/kg/day in data set [2] (Mus musculus, po, Exp. 2, 2.25 mmol/kg/day x 21, oral, read-out: % Growth inhibition) was found to be 100%. Moreover, in the data set on monkey liver acylamidase, the “Acylamidase activity, Monkey Liver” value was determined as 32 nmol/mg protein/hr. In addition, in data set [3], the LD50 at 504 h was above 500 mg/kg. Besides, the “Acylamidase activity, Human Liver” value in the data set on human liver acylamidase was found to be 74 nmol/mg protein/hr.
